In ChEMBL document CHEMBL1201862, “PubChem BioAssay data set” (2004):
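Cells were grown in 96-well plates and exposed to each compound for 48 hours at five concentrations; endpoints were interpolated linearly between bracketing concentrations, or set to the highest concentration if not reached. Abbreviation: GI50, concentration required for 50% inhibition of growth.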 The source made the active and inactive calls. No stated cut-off is given here; in the data, active = GI50 up to about 1.1 µM and inactive = higher. Numbered stars: 1 amine (or outer) side, 2 acyl side, 3 side chain; on linkers, the order of the positions; unused ones are H or OH. Bridge positions count the residues as written; N and C are the ends. Square brackets hold non-standard residues; d marks the D form. Peptide text beside a SMILES is read from it. I, II: the chains in the order shown. Actinocin(9to1) = Cc1c2oc3c(C)ccc(C(=O)[*:1])c3nc-2c(C(=O)[*:2])c(N)c1=O; X48 = O=C1CC(C(=O)[*:2])N([*:1])C1; NMeV = CN[CH](C(=O)O)C(C)C; Sar = CNCC(=O)O

Experiments:
Test in all cases: DTP human tumour cell line panel, 48 h
M14 = test system: M14
HCT-15 = test system: HCT-15
CAKI-1 = test system: CAKI-1
OVCAR-8 = test system: OVCAR-8
SK-OV-3 = test system: SK-OV-3
OVCAR-3 = test system: OVCAR-3
RXF 393 = test system: RXF 393
SW-620 = test system: SW-620
SK-MEL-28 = test system: SK-MEL-28
KM12 = test system: KM12
Hs-578T = test system: Hs-578T
SN12C = test system: SN12C
T47D = test system: T47D
TK-10 = test system: TK-10
UACC-257 = test system: UACC-257
BT-549 = test system: BT-549
COLO 205 = test system: COLO 205
NCI-H226 = test system: NCI-H226
MDA-N = test system: MDA-N

Compound | GI50 (M14) | GI50 (HCT-15) | GI50 (CAKI-1) | GI50 (OVCAR-8) | GI50 (SK-OV-3) | GI50 (OVCAR-3) | GI50 (RXF 393) | GI50 (SW-620) | GI50 (SK-MEL-28) | GI50 (KM12) | GI50 (Hs-578T) | GI50 (SN12C) | GI50 (T47D) | GI50 (TK-10) | GI50 (UACC-257) | GI50 (BT-549) | GI50 (COLO 205) | GI50 (NCI-H226) | GI50 (MDA-N)
COc1cnc2oc3ccc(O)cc3c2c1-c1ccccc1 | 18.7 µM (inactive) | > 100 µM | > 100 µM (inactive) | 55.3 µM (inactive) | > 100 µM (inactive) | 4.27 µM (inactive) | > 100 µM (inactive) | > 100 µM (inactive) | > 100 µM (inactive) | 83.2 µM (inactive) | > 100 µM (inactive) | > 100 µM (inactive) | 3.65 µM (inactive) | > 100 µM (inactive) | 88.5 µM (inactive) | > 100 µM (inactive) | 30.6 µM (inactive) |  | 
NCCOCn1cc(Cc2cccc(OCc3ccccc3)c2)c(=O)[nH]c1=O | > 100 µM (inactive) | > 100 µM |  | > 100 µM (inactive) | > 100 µM (inactive) | > 100 µM (inactive) |  | > 100 µM (inactive) | > 100 µM (inactive) | > 100 µM (inactive) |  | > 100 µM (inactive) |  | > 100 µM (inactive) |  |  | 92.5 µM (inactive) | > 100 µM (inactive) | 
COC(=O)CCCC(=O)NC1=C(Nc2ccccc2)C(=O)c2ccccc2C1=O | 16.1 µM (inactive) | 15.1 µM | 20.1 µM (inactive) | 31.9 µM (inactive) | 22.5 µM (inactive) | 12.6 µM (inactive) |  | 25.2 µM (inactive) | 16.7 µM (inactive) | 5.24 µM (inactive) | 28.7 µM (inactive) | 18 µM (inactive) | 24.3 µM (inactive) | 26.8 µM (inactive) | 13.3 µM (inactive) |  | 16.3 µM (inactive) |  | 3.89 µM (inactive)
Cc1nc2c(O)cc3c4c([nH]c3c2nc1C)C(=O)CCC4 | 3.35 µM (inactive) | 11.9 µM |  | 2.65 µM (inactive) | 3.76 µM (inactive) | 2.61 µM (inactive) | 0.162 µM (active) | 4.22 µM (inactive) | 2.8 µM (inactive) | 3.69 µM (inactive) | 2.62 µM (inactive) | 4.49 µM (inactive) |  | 3.4 µM (inactive) | 95.1 µM (inactive) |  | 2.26 µM (inactive) | 25.1 µM (inactive) | 0.869 µM (active)
O=C(NCCn1ccnn1)Nc1ccccc1 | > 100 µM (inactive) | > 100 µM | > 100 µM (inactive) | > 100 µM (inactive) |  |  |  | > 100 µM (inactive) | > 100 µM (inactive) | > 100 µM (inactive) |  | > 100 µM (inactive) |  | > 100 µM (inactive) | > 100 µM (inactive) | > 100 µM (inactive) | > 100 µM (inactive) |  | 
COc1ccc(/N=N/c2ccc3oc(=O)c(C(=O)Nc4ccc(Cl)cc4)cc3c2)cc1 | > 10 µM (inactive) | 0.67 µM | > 10 µM (inactive) | > 10 µM (inactive) | > 10 µM (inactive) | 7.28 µM (inactive) | > 10 µM (inactive) | 6.97 µM (inactive) | > 10 µM (inactive) | 4.32 µM (inactive) | > 10 µM (inactive) | > 10 µM (inactive) | 6.76 µM (inactive) | > 10 µM (inactive) | > 10 µM (inactive) |  | > 10 µM (inactive) | > 10 µM (inactive) | > 10 µM (inactive)
CCOC(=O)/C=C1/Nc2cc(F)c(F)cc2NC1=O | > 100 µM (inactive) | > 100 µM | > 100 µM (inactive) | > 100 µM (inactive) | > 100 µM (inactive) | > 100 µM (inactive) | > 100 µM (inactive) | > 100 µM (inactive) | > 100 µM (inactive) | > 100 µM (inactive) | > 100 µM (inactive) | > 100 µM (inactive) |  | > 100 µM (inactive) | > 100 µM (inactive) | > 100 µM (inactive) | > 100 µM (inactive) | > 100 µM (inactive) | > 100 µM (inactive)
OCCc1ccsc1-c1sc(-c2cc(CCO)c(-c3sccc3CCO)s2)cc1CCO | 11.3 µM (inactive) | 12.4 µM | 22.8 µM (inactive) | 15.7 µM (inactive) | 17.5 µM (inactive) | 18.1 µM (inactive) | 2.77 µM (inactive) | 31.2 µM (inactive) | 18.5 µM (inactive) | 3.38 µM (inactive) |  | 21.3 µM (inactive) |  | 19.5 µM (inactive) | 17 µM (inactive) | 6.11 µM (inactive) | 11.6 µM (inactive) |  | 21.6 µM (inactive)
CCN(CC)C(=O)Cn1c2c(c3ccccc31)CCCC2 | > 100 µM (inactive) | 74.6 µM | 57 µM (inactive) | > 100 µM (inactive) | > 100 µM (inactive) | > 10 µM (inactive) |  | > 100 µM (inactive) | > 100 µM (inactive) |  | 24.5 µM (inactive) | > 100 µM (inactive) |  | > 100 µM (inactive) | > 100 µM (inactive) | > 100 µM (inactive) | > 100 µM (inactive) |  | 77.8 µM (inactive)
CC(=O)C1=CN=C2C(=O)N(c3ccccc3)N(C)C12C (stereo not drawn) | > 100 µM (inactive) | 69.7 µM | > 100 µM (inactive) | > 100 µM (inactive) | > 100 µM (inactive) | > 100 µM (inactive) | > 100 µM (inactive) | > 100 µM (inactive) |  | 3.08 µM (inactive) |  | > 100 µM (inactive) |  | 49.9 µM (inactive) | > 100 µM (inactive) | > 100 µM (inactive) | > 100 µM (inactive) | > 100 µM (inactive) | > 100 µM (inactive)
CCCCCCCCc1cc2c(O)c(c1)Cc1cc(CCCCCCCC)cc(c1O)Cc1cc(CCCCCCCC)cc(c1O)Cc1cc(CCCCCCCC)cc(c1O)Cc1cc(CCCCCCCC)cc(c1O)Cc1cc(CCCCCCCC)cc(c1O)C2 | > 10 µM (inactive) | > 100 µM | > 100 µM (inactive) | > 100 µM (inactive) | > 100 µM (inactive) |  |  | > 100 µM (inactive) | > 100 µM (inactive) | > 100 µM (inactive) |  | > 100 µM (inactive) |  | > 100 µM (inactive) | > 100 µM (inactive) |  | > 100 µM (inactive) |  | 
C#CCn1c(=O)c2cc(OC)c(OC)cc2n(CC#C)c1=O | > 10 µM (inactive) | > 10 µM | > 10 µM (inactive) | > 10 µM (inactive) | > 10 µM (inactive) | > 10 µM (inactive) | > 10 µM (inactive) | > 10 µM (inactive) | > 10 µM (inactive) | > 10 µM (inactive) | > 10 µM (inactive) | > 10 µM (inactive) | > 10 µM (inactive) | > 10 µM (inactive) | > 10 µM (inactive) |  | > 10 µM (inactive) | > 10 µM (inactive) | > 10 µM (inactive)
Nc1nc(Cl)cc(OCC2(CO)CCCC2)n1 |  | > 100 µM |  | > 100 µM (inactive) |  | > 100 µM (inactive) | 79.8 µM (inactive) | > 100 µM (inactive) | > 100 µM (inactive) |  | > 100 µM (inactive) | > 100 µM (inactive) |  | > 100 µM (inactive) | > 100 µM (inactive) |  |  | > 100 µM (inactive) | > 100 µM (inactive)
Cc1nc2ccc(S(=O)(=O)Nc3ccc(Cl)cc3)cc2c(=O)n1NC(=O)CNc1ccc(Cl)cc1 | > 100 µM (inactive) | > 100 µM | > 100 µM (inactive) | > 100 µM (inactive) | > 100 µM (inactive) | > 100 µM (inactive) |  | > 100 µM (inactive) | > 100 µM (inactive) | 64 µM (inactive) | > 100 µM (inactive) | > 100 µM (inactive) |  | > 100 µM (inactive) | > 100 µM (inactive) | > 100 µM (inactive) | > 100 µM (inactive) | > 100 µM (inactive) | > 100 µM (inactive)
COc1ccc(S(=O)(=O)O)cc1-n1nc(C(=O)Nc2ccccc2)n[n+]1-c1cc(S(=O)(=O)[O-])ccc1OC | > 100 µM (inactive) | > 100 µM | > 100 µM (inactive) |  | > 100 µM (inactive) | > 100 µM (inactive) | > 100 µM (inactive) | > 100 µM (inactive) | > 100 µM (inactive) | > 100 µM (inactive) | > 100 µM (inactive) | > 100 µM (inactive) | > 100 µM (inactive) | > 100 µM (inactive) |  |  | > 100 µM (inactive) | > 100 µM (inactive) | > 100 µM (inactive)
COC1=CC(=O)C2C(C1=O)C(c1ccccc1)[C@H]2C (stereo partly drawn) | > 100 µM (inactive) | 18.9 µM |  | 45.6 µM (inactive) | > 100 µM (inactive) | 87.1 µM (inactive) | > 100 µM (inactive) | 18.5 µM (inactive) | > 100 µM (inactive) | > 100 µM (inactive) |  |  |  | > 100 µM (inactive) |  |  | > 100 µM (inactive) |  | 
Cc1c2oc3c(C)ccc(C(=O)NC4C(=O)NC(C(C)C)C(=O)N5CC(=O)CC5C(=O)N(C)CC(=O)N(C)C(C(C)C)C(=O)OC4C)c3nc-2c(C(=O)NC2C(=O)NC(C(C)C)C(=O)N3CC(=O)CC3C(=O)N(C)CC(=O)N(C)C(C(C)C)C(=O)OC2C)c(N)c1=O (stereo not drawn) (I: TV[X48][Sar][NMeV] / II: TV[X48][Sar][NMeV]; ester I:1-I:C, II:1-II:C; linker I:N-II:N via Actinocin(9to1); configuration not given here) | > 1 µM (active) | > 1 µM | > 1 µM (active) | > 1 µM (active) | > 1 µM (active) | > 1 µM (active) | 0.476 µM (active) | > 1 µM (active) | > 1 µM (active) |  |  | > 1 µM (active) | > 1 µM (active) | > 1 µM (active) | > 1 µM (active) |  | > 1 µM (active) | > 1 µM (active) | > 1 µM (active)
